Measurements as given in publication PMC6250127 (Journal of medicinal chemistry, 2015).
Entries after “also recorded” stand apart in the source; their conditions may differ. Read-outs that look alike come from different tables or passages of the source.

Tests used:
[1] = PC12 cell viability, direct effect of compound; conditions: rat
human D2 receptor = human D2 receptor (Homo sapiens, UniProt P14416); experiment: Stimulation of [35S]GTPγS binding, human D2 receptor in CHO cells; assay type: biochemical; conditions: for Emax: read-out: hCHO−D2 Emax, percent of Emax observed with 1 mM DA; for hCHO−D2 Emax: percent of Emax observed with 1 mM DA
Chain of human D2 receptor (P14416 whole entry): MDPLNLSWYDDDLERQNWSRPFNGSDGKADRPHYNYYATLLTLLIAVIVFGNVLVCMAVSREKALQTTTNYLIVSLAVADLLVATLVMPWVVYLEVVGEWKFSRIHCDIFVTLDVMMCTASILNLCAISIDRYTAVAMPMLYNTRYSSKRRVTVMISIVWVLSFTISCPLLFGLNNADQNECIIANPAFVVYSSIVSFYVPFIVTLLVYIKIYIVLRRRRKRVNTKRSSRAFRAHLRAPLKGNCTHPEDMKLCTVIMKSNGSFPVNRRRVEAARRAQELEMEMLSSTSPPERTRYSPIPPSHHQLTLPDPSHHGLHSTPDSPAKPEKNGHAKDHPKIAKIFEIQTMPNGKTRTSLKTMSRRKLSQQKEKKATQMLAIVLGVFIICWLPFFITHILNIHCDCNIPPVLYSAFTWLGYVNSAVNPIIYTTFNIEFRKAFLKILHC

human D3 receptor = human D3 receptor (Homo sapiens, UniProt P35462); experiment: Stimulation of [35S]GTPγS binding, human D3 receptor in CHO cells; assay type: biochemical; conditions: for Emax: read-out: hCHO−D3 Emax, percent of Emax observed with 100 μM DA; for D2/D3: ratio of GTPγS EC50 values
Chain of human D3 receptor (P35462 whole entry): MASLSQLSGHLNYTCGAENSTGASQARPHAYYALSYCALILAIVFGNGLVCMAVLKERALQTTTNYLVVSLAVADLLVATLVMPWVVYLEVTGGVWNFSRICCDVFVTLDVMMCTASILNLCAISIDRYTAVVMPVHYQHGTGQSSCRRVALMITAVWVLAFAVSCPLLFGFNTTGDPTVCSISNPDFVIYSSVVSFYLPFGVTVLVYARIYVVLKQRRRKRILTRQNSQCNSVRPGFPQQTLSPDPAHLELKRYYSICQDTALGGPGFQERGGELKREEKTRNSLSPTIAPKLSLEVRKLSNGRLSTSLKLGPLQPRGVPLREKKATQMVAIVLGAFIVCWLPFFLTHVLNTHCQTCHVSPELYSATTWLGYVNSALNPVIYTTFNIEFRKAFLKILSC

reserpinized rats = experiment: Reversal of reserpine-induced hypolocomotion in rats; assay type: in vivo, rat; conditions: for reversal of reserpine-induced hypolocomotion (locomotor activity): 10 μMol/kg ip, reserpine 5 mg/kg sc, 18 h pretreatment, rats; for duration of locomotor activation: 10 μMol/kg, reserpinized rats, locomotion monitored for 6 h
PC12 cells [2] = experiment: PC12 cell viability, direct effect of compound; conditions: PC12 cells, 0.01− 30 μM
PC12 cells [3] = experiment: Neuroprotection against 6-OHDA-induced toxicity in PC12 cells; conditions: 24 h pretreatment, then 75 μM 6-OHDA for 24 h
rat D2L receptor = rat D2L receptor (Rattus norvegicus, UniProt P61169); experiment: [3H]spiroperidol competition binding, rat D2L receptor in HEK-293 cells
Chain of rat D2L receptor (P61169 whole entry): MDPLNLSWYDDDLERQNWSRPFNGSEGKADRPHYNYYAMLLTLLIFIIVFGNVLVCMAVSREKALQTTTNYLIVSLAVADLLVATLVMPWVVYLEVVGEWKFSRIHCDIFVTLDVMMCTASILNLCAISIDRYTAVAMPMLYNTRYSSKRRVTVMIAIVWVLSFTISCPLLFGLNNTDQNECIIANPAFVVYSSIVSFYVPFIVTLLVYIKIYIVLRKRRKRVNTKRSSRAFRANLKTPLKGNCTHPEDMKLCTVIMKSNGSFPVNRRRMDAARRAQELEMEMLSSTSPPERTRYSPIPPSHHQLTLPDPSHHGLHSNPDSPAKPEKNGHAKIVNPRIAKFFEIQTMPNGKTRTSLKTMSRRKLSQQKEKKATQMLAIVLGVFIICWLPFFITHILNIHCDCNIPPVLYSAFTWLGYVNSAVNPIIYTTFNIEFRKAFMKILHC

rat D3 receptor [4] = target: T1, rat D3 receptor (Rattus norvegicus, UniProt P19020); experiment: [3H]spiroperidol competition binding, rat D3 receptor in HEK-293 cells; conditions: for D2L/D3: ratio of Ki values, selectivity for D3
T1 sequence (P19020 whole entry): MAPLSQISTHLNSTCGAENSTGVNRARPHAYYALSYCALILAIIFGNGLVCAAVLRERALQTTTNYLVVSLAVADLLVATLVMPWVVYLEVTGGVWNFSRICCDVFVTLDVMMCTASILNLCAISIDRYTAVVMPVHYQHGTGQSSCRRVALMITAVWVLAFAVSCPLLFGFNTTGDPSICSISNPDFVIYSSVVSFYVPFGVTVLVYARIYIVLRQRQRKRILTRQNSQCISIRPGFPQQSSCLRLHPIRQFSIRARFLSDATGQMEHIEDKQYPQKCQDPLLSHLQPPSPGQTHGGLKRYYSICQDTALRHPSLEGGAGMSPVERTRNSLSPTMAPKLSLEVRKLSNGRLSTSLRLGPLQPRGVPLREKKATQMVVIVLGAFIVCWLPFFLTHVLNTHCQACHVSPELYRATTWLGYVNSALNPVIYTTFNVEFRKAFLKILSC

rat D3 receptor [5] = target: T1, rat D3 receptor; conditions: ratio of Ki values; cited from earlier work

SMILES	Emax (human D2 receptor)	Emax (human D3 receptor)	reversal of reserpine-induced hypolocomotion (locomotor activity) (reserpinized rats)	duration of locomotor activation (reserpinized rats)	Ki (rat D2L receptor)	Ki (rat D3 receptor [4])	D2L/D3 (rat D3 receptor [4])	EC50 (human D2 receptor)	hCHO−D2 Emax (human D2 receptor)	EC50 (human D3 receptor)	D2/D3 (human D3 receptor)	other results
NCCc1cc(O)c(O)cc1O [6-OHDA, 6-hydroxydopamine, reference compound]												viability at 24 h, 75 μM [1]: ~50%
CCCN(CCN1CCN(c2ccc3cc[nH]c3c2Cl)CC1)[C@H]1CCc2nc(N)sc2C1.O=C(O)C(F)(F)F [(−)-21a, (S)-N^6-(2-(4-(7-Chloro-1H-indol-6-yl)piperazin-1-yl)ethyl)-N^6-propyl-4,5,6,7-tetrahydrobenzo[d]thiazole-2,6-diamine]	> 100%	> 100%	highly effcacious in reversing hypolocomotion; also recorded: highly efficacious in reversing akinesia in rats	long duration of action; also recorded: significant enhancement of locomotion for the entire duration of the study of 6 h								effect of compound alone on cell viability (PC12 cells [2]): no cell loss at all; neuroprotective effect against 6-OHDA-induced toxicity (PC12 cells [3]): neuroprotective; also recorded: dose-dependently protected the cells from the neurotoxic insult
C#CCN(CCN1CCN(c2ccc3[nH]ccc3c2Cl)CC1)[C@H]1CCc2nc(N)sc2C1 [(−)-34, (S)-N^6-(2-(4-(4-Chloro-1H-indol-5-yl)piperazin-1-yl)ethyl)-N^6-(prop-2-yn-1-yl)-4,5,6,7-tetrahydrobenzo[d]thiazole-2,6-diamine]		94 ± 3.5%	able to elevate locomotor activity in the above PD animal model significantly; also recorded: locomotor activity was enhanced compared to control but was less than that observed with (−)-21a		86.5 ± 15 nM	14.4 ± 1 nM	5.99	21.6 ± 9.6 nM	26.7 ± 6.4%	10.9 ± 2.4 nM	1.98	
C#CCN(CCN1CCN(c2ccc3cc[nH]c3c2Cl)CC1)[C@H]1CCc2nc(N)sc2C1 [(−)-36, (S)-N^6-(2-(4-(7-Chloro-1H-indol-6-yl)piperazin-1-yl)ethyl)-N^6-(prop-2-yn-1-yl)-4,5,6,7-tetrahydrobenzo[d]thiazole-2,6-diamine]	~100%	~100%			172 ± 16 nM	0.145 ± 0.035 nM	1186	39.4 ± 6.3 nM	86.8 ± 3.8%	0.84 ± 0.05 nM	46.9	hCHO−D3 Emax (human D3 receptor; percent of Emax observed with 100 μM DA): 93.4 ± 3.6%
CCCN(CCN1CCN(C(=O)c2c[nH]c3ccccc23)CC1)C1CCc2nc(N)sc2C1 [D-443, (4-(2-((2-amino-4,5,6,7-tetrahydrobenzo[d]-thiazol-6-yl)(propyl)amino)ethyl)-piperazin-1-yl)(1H-indol-3-yl)methanone]												D2L/D3 (rat D3 receptor [5]): 360
CCCN(CCC)CCc1cccc2c1CC(=O)N2 [ropinirole, reference compound]			quick onset of locomotor activation compared to control	much shorter duration of action compared with (−)-21a								
